Experiments:
[1] = system: anti-ANEC-BSA serum; assay: Inhibition ELISA, anti-ANEC-BSA serum on ANEC-BSA coated wells; format: binding, rabbit; conditions: anti ANEC-BSA sera
[2] = Solubility in aqueous buffer; format: physicochemical; conditions: insoluble above this concentration, read-out: solubility limit in aqueous buffer

CCn1c2ccccc2c2cc(N)ccc21 [3-amino-N-ethyl-carbazole, 3-amino-N-ethylcarbazole]
IC50 ([1]; free hapten as inhibitor, read-out: concentration giving 50% inhibition of antibody binding): 10 µM | inhibition of antibody binding ([1]; free hapten at 1 mM): 70% | solubility [2]: ≤ 1000 µM
